PubChem BioAssay AID330 (DTP/NCI, 2004)
Several values for one entry are separate records, joined by “and”; a condition that tells them apart may be missing. Equal entries are not always repeated. Inconclusive results and toxic doses are left out.

Test system: P388 leukemia ip, CD2F1 mice, survival T/C
Assay: NCI In Vivo Anticancer Drug Screen. Data for tumor model P388 Leukemia (intraperitoneal) in CD2F1 (CDF1) mice
Conditions: endpoint: median survival time, higher = longer survival
In short: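 Mice carrying the transplanted tumor received test compound or vehicle. Survival was recorded in each group, and the value is the treated-group measurement divided by that of the vehicle-treated control group.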

[1] = dose: 50.0 mg/kg/injection, schedule: Q01DX005 (ip), vehicle: saline with Tween-80
[2] = dose: 100.0 mg/kg/injection, schedule: Q01DX005 (ip), vehicle: saline with Tween-80
[3] = dose: 200.0 mg/kg/injection, schedule: Q01DX005 (ip), vehicle: saline with Tween-80
[4] = dose: 100.0 mg/kg/injection, schedule: Q01DX009 (ip), vehicle: saline with Tween-80
[5] = dose: 200.0 mg/kg/injection, schedule: Q01DX009 (ip), vehicle: saline with Tween-80

**Q.** `CN(C)C1C(=O)C(C(=O)NCN2CCOB(c3ccccc3)OCC2)=C(O)C2(O)C(O)=C3C(=O)C4C(O)=CC=CC4C(C)(O)C3CC12` (stereo not drawn) was tested. Which T/C (dose: 12.5 mg/kg/injection, schedule: Q04DX002 (ip), vehicle: saline) did it give?
**A.** 101 % of control

**Q.** And the T/C (dose: 25.0 mg/kg/injection, schedule: Q04DX002 (ip), vehicle: saline)?
**A.** 105 % of control

**Q.** What about the T/C (dose: 50.0 mg/kg/injection, schedule: Q04DX002 (ip), vehicle: saline) of the same compound?
**A.** 108 % of control

**Q.** `COc1ccc2ccccc2c1C(=O)CCCc1ccccc1` was tested. Which T/C (dose: 25.0 mg/kg/injection, schedule: Q01DX009 (ip), vehicle: other) did it give?
**A.** 98 % of control

**Q.** And the T/C (dose: 50.0 mg/kg/injection, schedule: Q01DX009 (ip), vehicle: other)?
**A.** 98 % of control

**Q.** What about the T/C (dose: 100.0 mg/kg/injection, schedule: Q01DX009 (ip), vehicle: other) of the same compound?
**A.** 98 % of control

**Q.** And the T/C (dose: 200.0 mg/kg/injection, schedule: Q01DX009 (ip), vehicle: other)?
**A.** 92 % of control

**Q.** And the T/C (dose: 400.0 mg/kg/injection, schedule: Q01DX009 (ip), vehicle: other)?
**A.** 105 % of control

**Q.** With `c1ccc(N[n+]2ccc3ccccc3c2)cc1` as the compound, how does the T/C (dose: 6.25 mg/kg/injection, schedule: Q01DX009 (ip), vehicle: distilled water + alcohol) read?
**A.** 104 % of control

**Q.** And the T/C (dose: 12.5 mg/kg/injection, schedule: Q01DX009 (ip), vehicle: distilled water + alcohol)?
**A.** 104 % of control

**Q.** What about the T/C (dose: 25.0 mg/kg/injection, schedule: Q01DX009 (ip), vehicle: distilled water + alcohol) of the same compound?
**A.** 102 % of control

**Q.** Which T/C (dose: 50.0 mg/kg/injection, schedule: Q01DX009 (ip), vehicle: Klucel (hydroxypropylcellulose) (HPC)) does the source give for `NC(=O)NCCSC1(SCCNC(N)=O)CCCCC1` here?
**A.** 107 % of control

**Q.** And the T/C (dose: 100.0 mg/kg/injection, schedule: Q01DX009 (ip), vehicle: Klucel (hydroxypropylcellulose) (HPC))?
**A.** 103 % of control

**Q.** And the T/C (dose: 200.0 mg/kg/injection, schedule: Q01DX009 (ip), vehicle: Klucel (hydroxypropylcellulose) (HPC))?
**A.** 100 % of control

**Q.** And the T/C (dose: 400.0 mg/kg/injection, schedule: Q01DX009 (ip), vehicle: Klucel (hydroxypropylcellulose) (HPC))?
**A.** 99 % of control

**Q.** How did the T/C (dose: 60.0 mg/kg/injection, schedule: Q01DX005 (ip), vehicle: Klucel (hydroxypropylcellulose) (HPC)) turn out when `CN(NC1OC(=O)c2ccccc21)c1ccc(C(F)(F)F)cc1[N+](=O)[O-]` (stereo not drawn) was run?
**A.** 95 % of control

**Q.** And the T/C (dose: 120.0 mg/kg/injection, schedule: Q01DX005 (ip), vehicle: Klucel (hydroxypropylcellulose) (HPC))?
**A.** 98 % of control

**Q.** And the T/C (dose: 240.0 mg/kg/injection, schedule: Q01DX005 (ip), vehicle: Klucel (hydroxypropylcellulose) (HPC))?
**A.** 100 % of control

**Q.** `C=C1C2CCC3C4(C)CCCC(C)(C(=O)O)C4CCC3(C2)C1OC(=O)/C(C)=C/C` (stereo not drawn) was tested. Which T/C (dose: 12.5 mg/kg/injection, schedule: Q01DX005 (ip), vehicle: Klucel (hydroxypropylcellulose) (HPC)) did it give?
**A.** 102 % of control

**Q.** What about the T/C (dose: 25.0 mg/kg/injection, schedule: Q01DX005 (ip), vehicle: Klucel (hydroxypropylcellulose) (HPC)) of the same compound?
**A.** 96 % of control

**Q.** What about the T/C (dose: 50.0 mg/kg/injection, schedule: Q01DX005 (ip), vehicle: Klucel (hydroxypropylcellulose) (HPC)) of the same compound?
**A.** 90 % of control

**Q.** What about the T/C [1] of the same compound?
**A.** 99 % of control

**Q.** And the T/C (dose: 100.0 mg/kg/injection, schedule: Q01DX005 (ip), vehicle: Klucel (hydroxypropylcellulose) (HPC))?
**A.** 87 % of control

**Q.** What about the T/C [2] of the same compound?
**A.** 95 % of control

**Q.** And the T/C [3]?
**A.** 95 % of control

**Q.** And the T/C (dose: 400.0 mg/kg/injection, schedule: Q01DX005 (ip), vehicle: saline with Tween-80)?
**A.** 95 % of control

**Q.** Which results are given for `CC(=O)Oc1cc(OCCCc2ccc(F)cc2)cc2ccc3ccccc3c12`?
**A.** T/C (dose: 100.0 mg/kg/injection, schedule: Q04DX002 (ip), vehicle: saline with Tween-80): 92 % of control; T/C (dose: 400.0 mg/kg/injection, schedule: Q04DX002 (ip), vehicle: saline with Tween-80): 92 % of control

**Q.** Which results are given for `CCCCOC(=O)NCCCl`?
**A.** T/C (dose: 50.0 mg/kg/injection, schedule: Q01DX009 (ip), vehicle: saline with Tween-80): 96 % of control; T/C [4]: 97 % of control; T/C [5]: 102 % of control

**Q.** Which results are given for `COc1cccc2c1C(=O)c1c(O)c3c(c(O)c1C2=O)C[C@@](O)(C(C)NCCCO)C[C@@H]3OC1CC(N)C(O)C(C)O1` (stereo partly drawn)?
**A.** T/C (dose: 0.5 mg/kg/injection, schedule: Q01DX009 (ip), vehicle: water): 122 % of control; T/C (dose: 1.0 mg/kg/injection, schedule: Q01DX009 (ip), vehicle: water): 150 % of control; T/C (dose: 2.0 mg/kg/injection, schedule: Q01DX009 (ip), vehicle: water): 154 % of control and 163 % of control; T/C (dose: 4.0 mg/kg/injection, schedule: Q01DX009 (ip), vehicle: water): 163 % of control and 173 % of control; T/C (dose: 8.0 mg/kg/injection, schedule: Q01DX009 (ip), vehicle: water): 174 % of control and 175 % of control; T/C (dose: 16.0 mg/kg/injection, schedule: Q01DX009 (ip), vehicle: water): 201 % of control

**Q.** Which T/C [4] does the source give for `Cc1cc(=O)c2c(ccc3ccccc32)[nH]1` here?
**A.** 106 % of control

**Q.** What about the T/C [5] of the same compound?
**A.** 109 % of control

**Q.** What about the T/C (dose: 400.0 mg/kg/injection, schedule: Q01DX009 (ip), vehicle: saline with Tween-80) of the same compound?
**A.** 104 % of control

**Q.** What does the source list for `O=C1c2ccccc2NC(O)c2cccn21` (stereo not drawn)?
**A.** T/C (dose: 0.1 mg/kg/injection, schedule: Q01DX005 (ip), vehicle: water): 89 % of control; T/C (dose: 0.2 mg/kg/injection, schedule: Q01DX005 (ip), vehicle: water): 91 % of control; T/C (dose: 0.4 mg/kg/injection, schedule: Q01DX005 (ip), vehicle: water): 93 % of control; T/C (dose: 0.8 mg/kg/injection, schedule: Q01DX005 (ip), vehicle: water): 91 % of control; T/C (dose: 1.6 mg/kg/injection, schedule: Q01DX005 (ip), vehicle: water): 93 % of control; T/C (dose: 5.0 mg/kg/injection, schedule: Q01DX005 (ip), vehicle: distilled water + Tween-80): 99 % of control; T/C (dose: 10.0 mg/kg/injection, schedule: Q01DX005 (ip), vehicle: distilled water + Tween-80): 99 % of control; T/C (dose: 20.0 mg/kg/injection, schedule: Q01DX005 (ip), vehicle: distilled water + Tween-80): 99 % of control; T/C (dose: 40.0 mg/kg/injection, schedule: Q01DX005 (ip), vehicle: distilled water + Tween-80): 100 % of control; T/C (dose: 80.0 mg/kg/injection, schedule: Q01DX005 (ip), vehicle: distilled water + Tween-80): 95 % of control

**Q.** For `Nc1nc2nc(/N=N/SCCC(=O)O)[nH]c2c(=O)[nH]1`, which T/C [1] is on record?
**A.** 105 % of control

**Q.** What about the T/C [2] of the same compound?
**A.** 108 % of control

**Q.** Which results are given for `CC(=O)NC1=C(N2CC2C)C(=O)C(NC(C)=O)=C(N2CC2C)C1=O` (stereo not drawn)?
**A.** T/C (dose: 1.78 mg/kg/injection, schedule: Q01DX009 (ip), vehicle: saline): 122 % of control; T/C (dose: 2.66 mg/kg/injection, schedule: Q01DX009 (ip), vehicle: saline): 160 % of control; T/C (dose: 4.0 mg/kg/injection, schedule: Q01DX009 (ip), vehicle: saline): 163 % of control; T/C (dose: 6.0 mg/kg/injection, schedule: Q01DX009 (ip), vehicle: saline): 210 % of control

**Q.** With `C=Cc1cc(OCC)c(OC)c2ccc3ccc(OC)c(OC)c3c12` as the compound, how does the T/C (dose: 100.0 mg/kg/injection, schedule: Q01DX001 (ip), vehicle: Klucel (hydroxypropylcellulose) (HPC)) read?
**A.** 95 % of control

**Q.** What about the T/C (dose: 200.0 mg/kg/injection, schedule: Q01DX001 (ip), vehicle: Klucel (hydroxypropylcellulose) (HPC)) of the same compound?
**A.** 103 % of control

**Q.** And the T/C (dose: 400.0 mg/kg/injection, schedule: Q01DX001 (ip), vehicle: Klucel (hydroxypropylcellulose) (HPC))?
**A.** 92 % of control

**Q.** How did the T/C (dose: 1.3 mg/kg/injection, schedule: Q01DX001 (ip), vehicle: water) turn out when `COc1cccc2c1C(=O)c1c(O)c3c(c(O)c1C2=O)C[C@@](O)(C(=O)CN1CCN(C)CC1)C[C@@H]3OC1CC(N)C(O)C(C)O1` (stereo partly drawn) was run?
**A.** 108 % of control

**Q.** What about the T/C (dose: 1.56 mg/kg/injection, schedule: Q01DX009 (ip), vehicle: water) of the same compound?
**A.** 115 % of control

**Q.** What about the T/C (dose: 1.8 mg/kg/injection, schedule: Q01DX001 (ip), vehicle: water) of the same compound?
**A.** 116 % of control

**Q.** And the T/C (dose: 2.4 mg/kg/injection, schedule: Q01DX001 (ip), vehicle: water)?
**A.** 106 % of control

**Q.** And the T/C (dose: 3.12 mg/kg/injection, schedule: Q01DX009 (ip), vehicle: water)?
**A.** 123 % of control

**Q.** And the T/C (dose: 3.13 mg/kg/injection, schedule: Q01DX009 (ip), vehicle: water)?
**A.** 115 % of control

**Q.** And the T/C (dose: 3.2 mg/kg/injection, schedule: Q01DX001 (ip), vehicle: water)?
**A.** 109 % of control

**Q.** What about the T/C (dose: 4.2 mg/kg/injection, schedule: Q01DX001 (ip), vehicle: water) of the same compound?
**A.** 113 % of control

**Q.** And the T/C (dose: 5.6 mg/kg/injection, schedule: Q01DX001 (ip), vehicle: water)?
**A.** 115 % of control

**Q.** What about the T/C (dose: 6.25 mg/kg/injection, schedule: Q01DX009 (ip), vehicle: water) of the same compound?
**A.** 115 % of control

**Q.** What about the T/C (dose: 7.5 mg/kg/injection, schedule: Q01DX001 (ip), vehicle: water) of the same compound?
**A.** 117 % of control

**Q.** What about the T/C (dose: 10.0 mg/kg/injection, schedule: Q01DX001 (ip), vehicle: water) of the same compound?
**A.** 115 % of control

**Q.** And the T/C (dose: 12.5 mg/kg/injection, schedule: Q01DX001 (ip), vehicle: water)?
**A.** 117 % of control

**Q.** And the T/C (dose: 18.8 mg/kg/injection, schedule: Q01DX009 (ip), vehicle: water)?
**A.** 161 % of control

**Q.** What about the T/C (dose: 25.0 mg/kg/injection, schedule: Q01DX001 (ip), vehicle: water) of the same compound?
**A.** 119 % of control

**Q.** What about the T/C (dose: 25.0 mg/kg/injection, schedule: Q01DX009 (ip), vehicle: water) of the same compound?
**A.** 115 % of control and 117 % of control

**Q.** What does the source list for `S=C(NCNC(=S)c1ccncc1)c1ccncc1`?
**A.** T/C [1]: 100 % of control and 111 % of control; T/C [2]: 108 % of control and 120 % of control; T/C [3]: 104 % of control
